# Test results: US20030105045A1, “Artificial transcriptional factors and methods of use” (priority 2000, published 2003)
# Assays:
# [1] = system: transcription template with 5 copies of ATF binding sites upstream of minimal HSV thymidine kinase promoter driving CAT reporter gene, BHK-21 cells; test: Transient cotransfection CAT reporter assay in BHK-21 cells, template with ATF binding sites; type: cell-based; conditions: 50 nM ATFs, 1 microgram plasmid, LipofectAMINE, harvested 48 hours after transfection
# Excerpt: The ability of ATFs to activate transcription in vivo was examined by transient cotransfection assays in BHK-21 tissue culture cells. As a control template, a reporter construct containing the minimal HSV thymidine kinase promoter driving the expression of chloramphenicol acetyl transferase (CAT) reporter gene was used. The transcription template was constructed by incorporating the oligonucleotide with 5 copies of ATF binding sites in between the HindIII and BamHI restriction sites of the polylinker upstream of the control template promoter (FIG. 6A). The transfection mixture contained 1 microgram of the plasmid DNA and 50 nM ATFs. Transfections were performed by using polycationic lipid LipofectAMINE (Life Technologies). Cells were harvested 48 hours after transfection and CAT assays were performed using FAST CAT (Molecular Probes, Inc.) as substrate, and visualized and quantitated on a Fluorimager (Molecular Dynamics). Each reporter construct shown in FIG. 6A was transfected into cells with and without ATF molecules and the activation signal was measured with standard methods.
# [2] = system: ATF assay template containing five ATF binding sites in the promoter; test: In vitro run-off transcription assay with HeLa crude nuclear extract, ATF assay template; type: biochemical; conditions: for level/strength of transcriptional activation in words (compared with GAL4-VP16 or basal): ATF assay template
# Excerpt: (§1) Two 26-base oligonucleotides having the sequence of SEQ. ID NO: 9 and SEQ. ID NO: 10 were annealed and ligated to yield a series of double-stranded DNA fragments containing multiple binding sites for triple-helix formation. A fragment containing 5 copies of the site as shown in the duplex of SEQ ID NO: 9 and SEQ ID NO: 10 was purified by agarose gel electrophoresis and inserted into the HindIII restriction site in the polylinker of an embodiment of the G5E4T series of transcription templates.
# (§2) In FIG. 3A, the control template contains […] five GAL4 and five ATF binding sites incorporated in the promoter at −53 and −155 bp relative to the +1 transcription start site, respectively; and in FIG. 3B the ATF assay template contains five ATF binding sites incorporated at −65 bp.
# The resulting plasmids were linearized by digestion with EcoRI, purified and the linear templates were stored in ultra-pure water at −20° C. The transcription assay was initiated by incubation of 200 ng of linearized transcription templates with ATFs in the binding buffer containing 10 mM Tris pH 8, 40 mM MgCl2 and 100 mM KCl at room temperature for 24 hours. The total volume of binding reaction was 5 microliters. After binding reaction, salt and buffer conditions were adjusted by the addition of 5 microliters of water, 6 microliters of 1×HeLa buffer (20 mM HEPES pH 7.9, 100 mM KCl, 0.2 mM EDTA, 0.5 mM DTT, 20% glycerol) and 5 microliters of HeLa crude nuclear extract (Promega, Madison Wis.). An aliquot of GAL4-VP16 protein (1 microliter total) was added to the control templates and all reactions were pre-incubated for 10 minutes at 30 degrees C. The transcription was initiated by the addition of 1 microliter of a mixture of ribonucleotide triphosphates (ATP, CTP, GTP, 10 mM each) and 0.5 microliters of ^32P-alpha-UTP (NEN, Boston, Mass.). After further incubation at 30° C. for 30 minutes all transcription reactions were terminated by the addition of 100 microliters of stop buffer (0.5 M sodium acetate, 0.2% SDS, 10 mM EDTA, 1 microgram/ml glycogen, 1 microgram/ml Proteinase K). The reactions were vortexed, incubated at 37° C. for 10 minutes, extracted with phenol/chloroform, and precipitated with 250 microliters of ice-cold ethanol. The pellets were dissolved in 20 microliters of standard denaturing formamide/dye mix and were loaded and run on a denaturing 6% polyacrylamide gel.
# (§3) The templates for in vitro transcription were made by inserting 5 direct repeats of a triple helix binding DNA sequence having a sequence of SEQ ID NO: 11 (5′[…]3′) into the Hind III restriction site in the polylinker of the GnE4T series of transcription templates (Lin, Y. S. et al., Cell 5A: 659-664 (1988)). […] The quantitation of signals was performed with Fuji MacBAS software.
# [3] = system: control template containing five GAL4 binding sites; test: In vitro run-off transcription assay with HeLa crude nuclear extract, control template; type: biochemical; conditions: data not shown
# Excerpt: as §1, §2
# The resulting plasmids were linearized by digestion with EcoRI, purified and the linear templates were stored in ultra-pure water at −20° C. […]
# as §3
# [4] = system: GAL4 DNA-binding domain fusion; conditions: cited from earlier work
substance,measurement,setting,value
"ATF(29): 22-mer TFO (SEQ ID NO:5), 5′ polyglycol linker, crosslinker-coupled 29 amino acid VP16 peptide (SEQ ID NO:8) (chain 1 ttgtggtgggtggggtgtgggt; chain 2 CGSDALDDFDLDMLGSDALDDFDLDMLGS; polyglycol linker, crosslinker conjugation; synthetic composition useful as artificial transcriptional factor)",transcriptional activation above the basal level,[1],5 fold
same,level/strength of transcriptional activation in words (compared with GAL4-VP16 or basal),[2]; FIG. 4 and FIG. 5,comparable to the level that could be obtained with GAL4-VP16
same,level/strength of transcriptional activation in words (compared with GAL4-VP16 or basal),"[2]; FIG. 4 and FIG. 5, listed as ATF","equal to, if not higher than"
same,ATF concentrations at which these levels of activation (30-40 fold) are obtained,[2]; further increase in concentration leads to diminishing activation,2 to 40 nM
same,activation of transcription above basal level,"[2]; linearized template with five ATF binding sites, quantitation of 250 base RNA transcript",30-40 fold
same,activation of transcription from control templates or other templates lacking ATF binding sites,[3],does not activate transcription
CGSDALDDFDLDMLGSDALDDFDLDMLGS (synthetic composition useful as artificial transcriptional factor) [SEQ ID NO: 8],activity retained relative to full-length VP 16 when fused to the GAL4 DNA-binding domain,"[4]; Seipel et al. 1992, Nyanguile et al. 1997",about 70%
CGSDALDDFDLDML (synthetic composition useful as artificial transcriptional factor) [14-mer peptide derived from VP16],activity when fused to the GAL4 DNA binding domain through recombinant DNA techniques,[4]; Seipel et al.,inactive
